Measured values: patent US12227501B2, “3-amino-2-[2-(acylamino)pyridin-4-yl]-1,5,6,7-tetrahydro-4h-pyrrolo[3,2-c]pyridin-4-one as CSNK1 inhibitors” (Bayer Aktiengesellschaft, priority 2019, dated 2025)
pIC50: −log10 of the molar value. Where “and” joins values, the source holds several entries; their conditions need not be identical. Equal values may be shown once. Where a name gives a salt, the structure may show the parent alone. Read-outs that look alike come from different tables or passages of the source.

What was measured:
Type in all cases: biochemical
[1] = target: human CSNK1D (Homo sapiens (Human), UniProt P48730); assay: CSNK1D Assay (ADP-Glo, 1 μM ATP); conditions: read-out: CSNK1D IC50 [mol/l] (median)
Summary of the method: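 Activity is read as ADP produced, by ADP-Glo luminescence after 1 h steps at 22 °C. The reaction uses 1 μM ATP, a biotinylated peptide and insect-cell-expressed GST–CSNK1D (about 0.5 ng/μL) in pH 7.5 HEPES buffer, with 15 min compound–enzyme preincubation.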

[2] = target: T1, human CSNK1A1 (Homo sapiens (Human), UniProt P48729); assay: CSNK1A1 Assay 2 (ADP-Glo, 1 μM ATP); conditions: substrate biotin-Ahx-KRRRAL-pS-VASLPGL, read-out: CSNK1A1 Assay 2 IC50 [mol/l] (median)
Summary of the method: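 Full-length human CSNK1A1 as an N-terminal GST fusion (baculovirus/insect cells) with biotinylated peptide substrate biotin-Ahx-KRRRAL-pS-VASLPGL and 1 μM ATP, in HEPES pH 7.5 buffer. Compounds were pre-incubated with enzyme (~0.0375 ng/μL) for 15 min at 22 °C. Generated ADP was read by ADP-Glo luminescence as the activity measure.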

[3] = target: wild-type Epidermal Growth Factor Receptor (EGFR) (Homo sapiens (Human), UniProt P00533); assay: WT-EGFR Kinase Assay (TR-FRET, 2 mM ATP)
[4] = target: T1, human CSNK1A1; assay: CSNK1A1 High ATP Assay (ADP-Glo, 1 mM ATP); conditions: read-out: CSNK1A1 high ATP assay IC50 [mol/l] (median)
Summary of the method: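 Kinase activity taken as ADP generated, quantified by ADP-Glo luminescence after 1 h ATP depletion and 1 h detection at 22 °C. Enzyme is GST–full-length human CSNK1A1 (insect cell-expressed), pre-bound to compound for 15 min, with phosphopeptide substrate and 1 mM ATP.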

[5] = EGFR Wildtyp- 2 mM ATP IC50 [mol/l] (median)
[6] = read-out: EGFR Wildtyp- 2 mM ATP IC50 [mol/l] (median)

Sequence of human CSNK1D (P48730 whole entry): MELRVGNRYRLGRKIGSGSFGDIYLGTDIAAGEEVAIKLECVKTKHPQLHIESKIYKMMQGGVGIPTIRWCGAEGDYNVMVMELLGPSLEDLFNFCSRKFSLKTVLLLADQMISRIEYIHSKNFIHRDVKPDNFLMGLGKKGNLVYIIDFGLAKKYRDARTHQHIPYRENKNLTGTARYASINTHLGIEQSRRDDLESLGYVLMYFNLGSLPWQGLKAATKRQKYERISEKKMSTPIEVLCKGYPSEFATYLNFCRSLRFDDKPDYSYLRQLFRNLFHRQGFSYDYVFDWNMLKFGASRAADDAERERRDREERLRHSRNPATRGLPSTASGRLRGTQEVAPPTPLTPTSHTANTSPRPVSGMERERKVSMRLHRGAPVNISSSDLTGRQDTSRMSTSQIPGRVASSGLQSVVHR
T1 sequence (P48729 whole entry, the tested form may be a part): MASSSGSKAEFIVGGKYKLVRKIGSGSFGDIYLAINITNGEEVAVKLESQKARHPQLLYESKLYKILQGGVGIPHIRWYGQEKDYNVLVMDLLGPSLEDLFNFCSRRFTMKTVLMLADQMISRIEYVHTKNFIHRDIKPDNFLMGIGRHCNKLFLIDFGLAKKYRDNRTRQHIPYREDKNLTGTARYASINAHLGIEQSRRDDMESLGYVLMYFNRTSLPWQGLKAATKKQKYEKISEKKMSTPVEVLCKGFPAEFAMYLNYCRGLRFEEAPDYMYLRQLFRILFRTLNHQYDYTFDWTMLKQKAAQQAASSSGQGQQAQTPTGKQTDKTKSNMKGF
Sequence of wild-type Epidermal Growth Factor Receptor (EGFR) (P00533 669-1210): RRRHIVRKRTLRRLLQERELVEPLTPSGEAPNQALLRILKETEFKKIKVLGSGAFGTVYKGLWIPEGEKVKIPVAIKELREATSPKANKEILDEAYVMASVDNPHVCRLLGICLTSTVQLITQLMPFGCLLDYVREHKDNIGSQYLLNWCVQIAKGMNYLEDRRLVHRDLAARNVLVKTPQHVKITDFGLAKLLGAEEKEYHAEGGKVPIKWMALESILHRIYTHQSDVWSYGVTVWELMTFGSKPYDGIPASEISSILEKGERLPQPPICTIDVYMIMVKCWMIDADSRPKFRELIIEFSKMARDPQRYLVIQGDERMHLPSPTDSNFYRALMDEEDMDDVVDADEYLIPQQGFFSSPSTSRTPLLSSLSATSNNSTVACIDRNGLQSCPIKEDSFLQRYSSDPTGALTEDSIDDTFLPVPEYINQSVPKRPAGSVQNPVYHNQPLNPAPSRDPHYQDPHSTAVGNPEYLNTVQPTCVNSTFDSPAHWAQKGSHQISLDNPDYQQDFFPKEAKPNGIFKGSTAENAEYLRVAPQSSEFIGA

Compound | pIC50 [1] | pIC50 [2] | pIC50 [3, 5] | pIC50 [4] | pIC50 [3, 6]
CC1Cc2[nH]c(-c3ccnc(NC(=O)Cc4ccc(F)cc4)c3)c(Nc3ccccc3)c2C(=O)N1C (single isomer, unassigned; (+)) [Example 89, (+)-N-{4-[3-anilino-5,6-dimethyl-4-oxo-4,5,6,7-tetrahydro-1H-pyrrolo[3,2-c]pyridin-2-yl]pyridin-2-yl}-2-(4-fluorophenyl)acetamide] | 8.24 | 8.73 | 5.22 | 6.44 | 
O=C1NC2(CC2)Cc2[nH]c(-c3ccnc(NC(=O)C(CC(F)F)c4ccc(F)cc4)c3)c(Nc3ccccc3)c21 (single isomer, unassigned; enantiomer 2) [Example 149, N-[4-(3′-anilino-4′-oxo-1′,4′,5′,7′-tetrahydrospiro[cyclopropane-1,6′-pyrrolo[3,2-c]pyridin]-2′-yl)pyridin-2-yl]-4,4-difluoro-2-(4-fluorophenyl)butanamide (Enantiomer 2)] | 7.40 | 7.39 | 4.78 | 6.33 | 
CN1CCc2[nH]c(-c3ccnc(NC(=O)Cc4ccc(F)cc4)c3)c(Nc3cccc(F)c3F)c2C1=O [Example 154, N-{4-[3-(2,3-difluoroanilino)-5-methyl-4-oxo-4,5,6,7-tetrahydro-1H-pyrrolo[3,2-c]pyridin-2-yl]pyridin-2-yl}-2-(4-fluorophenyl)acetamide formamide salt] | 8.35 | 8.48 |  | 6.92 | < 4.70
Cc1ccccc1Nc1c(-c2ccnc(NC(=O)C(C)c3ccc(F)cc3)c2)[nH]c2c1C(=O)NC(C)(C)C2 (single isomer, unassigned; enantiomer 1) [Example 133, (−)-N-{4-[6,6-dimethyl-3-(2-methylanilino)-4-oxo-4,5,6,7-tetrahydro-1H-pyrrolo[3,2-c]pyridin-2-yl]pyridin-2-yl}-2-(4-fluorophenyl)propanamide (Enantiomer 1)] | 6.55 | 6.71 | 6.39 | < 5.24 | 
CN1CCc2[nH]c(-c3ccnc(NC(=O)Cc4cnccn4)c3)c(Nc3ccccc3)c2C1=O [Example 114, N-[4-(3-anilino-5-methyl-4-oxo-4,5,6,7-tetrahydro-1H-pyrrolo[3,2-c]pyridin-2-yl)pyridin-2-yl]-2-(pyrazin-2-yl)acetamide] | 8.33 | 8.61 |  | 6.64 | 5.69
CC(C(=O)Nc1cc(-c2[nH]c3c(c2Nc2ccccc2)C(=O)N(C)C(C)C3)ccn1)c1ccc(F)cc1 (single isomer, unassigned; (+)) [Example 92, (+)-N-{4-[3-anilino-5,6-dimethyl-4-oxo-4,5,6,7-tetrahydro-1H-pyrrolo[3,2-c]pyridin-2-yl]pyridin-2-yl}-2-(4-fluorophenyl)propanamide] | 7.97 | 8.33 | < 4.70 | 6.64 | 
Cc1ccccc1Nc1c(-c2ccnc(NC(=O)C(C)c3ccc(F)cc3)c2)[nH]c2c1C(=O)NC(C)(C)C2 (single isomer, unassigned; enantiomer 2) [Example 134, N-{4-[6,6-dimethyl-3-(2-methylanilino)-4-oxo-4,5,6,7-tetrahydro-1H-pyrrolo[3,2-c]pyridin-2-yl]pyridin-2-yl}-2-(4-fluorophenyl)propanamide (Enantiomer 2)] | 7.34 | 7.72 | < 4.70 | 6.52 | 
CC1Cc2[nH]c(-c3ccnc(NC(=O)Cc4ccc(F)cc4)c3)c(Nc3ccccc3)c2C(=O)N1C (single isomer, unassigned; (-)) [Example 90, (−)-N-{4-[3-anilino-5,6-dimethyl-4-oxo-4,5,6,7-tetrahydro-1H-pyrrolo[3,2-c]pyridin-2-yl]pyridin-2-yl}-2-(4-fluorophenyl)acetamide] | 8.42 | 8.84 | 6.25 | 7.20 | 
CCN1CCc2[nH]c(-c3ccnc(NC(=O)Cc4ccc(F)cc4)c3)c(Nc3ccccc3)c2C1=O [Example 28, N-[4-(3-anilino-5-ethyl-4-oxo-4,5,6,7-tetrahydro-1H-pyrrolo[3,2-c]pyridin-2-yl)pyridin-2-yl]-2-(4-fluorophenyl)acetamide] | 7.15 | 7.94 |  | 5.70 | < 4.70
CC(C(=O)Nc1cc(-c2[nH]c3c(c2Nc2ccccc2Cl)C(=O)NCC3)ccn1)c1ccc(F)cc1 (single isomer, unassigned) [Example 16, N-{4-[3-(2-chloroanilino)-4-oxo-4,5,6,7-tetrahydro-1H-pyrrolo[3,2-c]pyridin-2-yl]pyridin-2-yl}-2-(4-fluorophenyl)propanamide] | 8.10 | 8.59 |  | 6.99 | < 4.70
CC1(C)Cc2[nH]c(-c3ccnc(NC(=O)C(CC(F)F)c4ccc(F)cc4)c3)c(Nc3cccc(F)c3)c2C(=O)N1 (single isomer, unassigned; enantiomer 1) [Example 120, 4,4-difluoro-N-{4-[3-(3-fluoroanilino)-6,6-dimethyl-4-oxo-4,5,6,7-tetrahydro-1H-pyrrolo[3,2-c]pyridin-2-yl]pyridin-2-yl}-2-(4-fluorophenyl)butanamide (Enantiomer 1)] | 7.96 | 8.02 | < 4.70 | 6.32 | 
Cc1ccc(CC(=O)Nc2cc(-c3[nH]c4c(c3Nc3ccccc3)C(=O)N(C)CC4)ccn2)cc1 [Example 68, N-[4-(3-anilino-5-methyl-4-oxo-4,5,6,7-tetrahydro-1H-pyrrolo[3,2-c]pyridin-2-yl)pyridin-2-yl]-2-(4-methylphenyl)acetamide] | 8.44 | 8.49 |  | 7.13 | 5.68
CC(C(=O)Nc1cc(-c2[nH]c3c(c2Nc2ccccc2)C(=O)N(CC(C)(C)O)CC3)ccn1)c1ccc(F)cc1 (centres unmarked) [Example 24, N-{4-[3-anilino-5-(2-hydroxy-2-methylpropyl)-4-oxo-4,5,6,7-tetrahydro-1H-pyrrolo[3,2-c]pyridin-2-yl]pyridin-2-yl}-2-(4-fluorophenyl)propanamide] | 7.19 | 7.41 |  | < 5.24 and 5.37 | < 4.70
CC(C(=O)Nc1cc(-c2[nH]c3c(c2Nc2ccccc2)C(=O)N(C2CC2)CC3)ccn1)c1ccc(F)cc1 (centres unmarked) [Example 8, N-[4-(3-anilino-5-cyclopropyl-4-oxo-4,5,6,7-tetrahydro-1H-pyrrolo[3,2-c]pyridin-2-yl)pyridin-2-yl]-2-(4-fluorophenyl)propanamide] | 7.42 | 7.81 |  | 5.71 | < 4.70
CC(C(=O)Nc1cc(-c2[nH]c3c(c2Nc2ccccc2)C(=O)NCC3)ccn1)c1ccc(F)cc1 (single isomer, unassigned) [Example 11, N-[4-(3-anilino-4-oxo-4,5,6,7-tetrahydro-1H-pyrrolo[3,2-c]pyridin-2-yl)pyridin-2-yl]-2-(4-fluorophenyl)propanamide] | 7.51 | 7.52 | 5.64 | 5.40 | 
CCC(C(=O)Nc1cc(-c2[nH]c3c(c2Nc2ccccc2)C(=O)N(C)CC3)ccn1)c1ccc(F)cc1 (single isomer, unassigned; (+)) [Example 77, (+)-N-[4-(3-anilino-5-methyl-4-oxo-4,5,6,7-tetrahydro-1H-pyrrolo[3,2-c]pyridin-2-yl)pyridin-2-yl]-2-(4-fluorophenyl)butanamide] | 8.35 | 8.67 |  | 7.06 | < 4.70
CN1CCc2[nH]c(-c3ccnc(NC(=O)Cc4ccc(F)cc4F)c3)c(Nc3ccccc3)c2C1=O [Example 82, N-[4-(3-anilino-5-methyl-4-oxo-4,5,6,7-tetrahydro-1H-pyrrolo[3,2-c]pyridin-2-yl)pyridin-2-yl]-2-(2,4-difluorophenyl)acetamide] | 8.26 | 8.65 |  | 6.79 | 5.94
CC(C(=O)Nc1cc(-c2[nH]c3c(c2Nc2ccccc2)C(=O)NC(C)(C)C3)ccn1)c1ccc(F)cc1 (centres unmarked) [Example 27, N-[4-(3-anilino-6,6-dimethyl-4-oxo-4,5,6,7-tetrahydro-1H-pyrrolo[3,2-c]pyridin-2-yl)pyridin-2-yl]-2-(4-fluorophenyl)propanamide] | 7.44 | 8.11 | < 4.70 | 6.80 | 4.74
CC1(C)Cc2[nH]c(-c3ccnc(NC(=O)C(CC(F)F)c4ccc(F)cc4)c3)c(Nc3cccc(F)c3Cl)c2C(=O)N1 (single isomer, unassigned; (+)) [Example 111, (+)-N-{4-[3-(2-chloro-3-fluoroanilino)-6,6-dimethyl-4-oxo-4,5,6,7-tetrahydro-1H-pyrrolo[3,2-c]pyridin-2-yl]pyridin-2-yl}-4,4-difluoro-2-(4-fluorophenyl)butanamide] | 7.99 | 7.96 | 5.94 | 6.87 | 
